Like-named read-outs stand apart in the source and are kept apart here.
Molecular target: T1, recombinant HIV-1 protease (Human immunodeficiency virus type 1 group M subtype B, UniProt P04585)
T1 construct: recombinant HIV-1 protease (final concentration 2.18 nM) purchased from Bachem Bioscience; purchased Bachem Bioscience
Experiment: Enzymatic fluorometric (FRET) assay for determining the inhibition constant (Ki) against HIV protease
Type: biochemical
From the text: An Enzymatic assay for determining the inhibition constant (Ki) of synthetic compounds targeting the HIV protease may be carried out as follows: This is a fluorometric assay based on the cleavage by protease of a substrate carrying a donor group (EDANS) and an acceptor group (DABCYL) on each side of the cleavage site, interacting together through fluorescence resonance energy transfer (FRET). Cleavage of the substrate by protease stops energy exchange between the two groups, resulting in a time-dependent increase in fluorescence intensity that is linearly related to the extent of substrate hydrolysis.
The enzymatic assay is done at 31° C. in white 96-well fluorescence microplates, in a total volume of 200 μL per well. The apparatus used for analysis is a FL600 fluorescence microplate reader (Biotek Instruments). […] Excitation of the fluorophore is done at 340 nm and emission at 485 nm is recorded continuously during the reaction, allowing determination of the enzyme's initial velocity (v0). At the end of the 4 min incubation, the potential inhibitor at a defined concentration in a volume of 4 μL is added to the reaction, and fluorescence readings are taken for another 4 min, allowing determination of enzyme velocity (vi) in the presence of the inhibitory compound. Several concentrations of the putative inhibitors are tested in the assay. After calculation of v0 and vi, the inhibition constant (Ki) of the compound is determined using the equation of Henderson: [formula]
and [I]=inhibitor concentration, [S]=substrate concentration,
Km=Michaelis-Menten constant, Kiapp=apparent Ki
Graphs are traced and the Ki determined using GraphPad Prism software v. 3.0.

[1] = fluorometric FRET assay, recombinant HIV-1 protease, pH 4.7, 31° C., read-out: Ki
[2] = fluorometric FRET assay, 31° C., pH 4.7, recombinant HIV-1 protease 2.18 nM, substrate 10 μM, read-out: Ki

Molecule	Ki [1] [nM]	also measured
Cc1ccc(S(=O)(=O)N(CC(C)C)C(CCCCNC(=O)C2c3ccccc3-c3ccccc32)C(=O)O)cc1 (centres unmarked) [Compound 83]	105	
CC(C)CN([C@@H](CCCCNC(=O)CCc1ccccc1)C(=O)O)S(=O)(=O)c1ccc(N)cc1 [Compound 158, Nα-Isobutyl-Nα-(4-aminobenzenesulfonyl)-Nε-dihydrocinnamoyl-L-lysine]	> 300	
O=C(N[C@@H](CCCCNS(=O)(=O)c1ccccc1)C(=O)O)OCC1c2ccccc2-c2ccccc21 [Compound 49, Nε-Benzenesulfonyl-Nα-(9-fluorenylmethoxycarbonyl)-L-lysine]	8900	
COc1ccc(S(=O)(=O)N(CC(C)C)[C@@H](CCCCNC(=O)OCC2c3ccccc3-c3ccccc32)C(=O)O)cc1 [Compound 7, Nα-Isobutyl-Nα-(4-methoxybenzenesulfonyl)-Nε-(9-fluorenylmethoxycarbonyl)-L-lysine]	10.6	
Nc1ccc(S(=O)(=O)NCCCC[C@H](NC(=O)OCC2c3ccccc3-c3ccccc32)C(=O)O)cc1 [Compound 52, Nε-(4-Aminobenzenesulfonyl)-Nα-(9-fluorenylmethoxycarbonyl)-L-lysine]	6800	
Cc1ccc(S(=O)(=O)N(CC(C)C)C(CCCCN(CC(C)C)C(=O)CCc2ccccc2)C(=O)O)cc1 (racemic) [Compound 159, Nα, Nε-diisobutyl-Nα-(4-methylbenzenesulfonyl)-Nε-(3-phenylpropanoyl)-DL-lysine]		Ki (Ki (nM)): > 300 nM
Cc1ccc(S(=O)(=O)N(CC(C)C)[C@@H](CCCCNC(=O)OCc2ccccc2)C(=O)OCc2ccccc2)cc1 [Compound 75, Nα-isobutyl-Nα-(4-methylbenzenesulfonyl)-Nε-benzyloxycarbonyl-L-lysine Benzyl Ester]	> 1250	
CC(C)CN(CCC[C@H](NC(=O)OCC1c2ccccc2-c2ccccc21)C(=O)O)S(=O)(=O)c1ccc(Br)cc1 [Compound 41, Nα-(9-Fluorenylmethoxycarbonyl)-Nδ-isobutyl-Nδ-(4-bromobenzenesulfonyl)-L-ornithine]	> 50000	
Nα,Nδ-di-(4-Bromobenzenesulfonyl)-Nδ-(4-fluorobenzyl)-L-ornithine [Compound 59]	> 200	
Cc1ccc(S(=O)(=O)N(CC(C)C)[C@@H](CCCCNC(=O)COc2ccccc2)C(=O)O)cc1 [Compound 203, Nα-Isobutyl-Nα-(4-methylbenzenesulfonyl)-Nε-phenoxyacetyl-L-lysine]		Ki [2]: 17.5 nM
Cc1ccc(S(=O)(=O)N(CC(C)C)C(CCCCNC(=S)CCc2ccccc2)C(=O)O)cc1 (racemic) [Compound 153, Nα-Isobutyl-Nα-(4-methylbenzenesulfonyl)-Nε-dihydrothiocinnamoyl-DL-lysine]	151	
O=C(N[C@@H](CCCCNS(=O)(=O)c1ccc(Br)cc1)C(=O)O)OCC1c2ccccc2-c2ccccc21 [Compound 16, Nε-(4-Bromobenzenesulfonyl)-Nα-(9-fluorenylmethoxycarbonyl)-L-lysine]	13000	
Cc1ccc(S(=O)(=O)N(CC(C)C)[C@@H](CCCCNC(=O)C2c3ccccc3Oc3ccccc32)C(=O)O)cc1 [Compound 85]	14.5	
O=C(N[C@@H](CCCCNS(=O)(=O)c1ccc(Br)cc1)C(=O)O)c1cnc2cc(C(F)(F)F)ccc2c1O [Compound 23, Nα-(4-hydroxy-7-trifluoromethylquinoline-3-carbonyl)-Nε-(4-bromobenzenesulfonyl)-L-lysine]	> 50000	
CC(C)CN([C@@H](CCCCNC(=O)C=Cc1ccc2c(c1)OCO2)C(=O)O)S(=O)(=O)c1ccc([N+](=O)[O-])cc1 [Compound 163, Nα-Isobutyl-Nα-(4-nitrobenzenesulfonyl)-Nε-(3,4-methylenedioxycinnamoyl)-L-lysine]	> 300	
O=C(O)[C@H](CCCNS(=O)(=O)c1ccc(Br)cc1)NS(=O)(=O)c1ccc(Br)cc1 [Compound 57, Nα,Nδ-di-(4-Bromobenzenesulfonyl)-L-ornithine]	42400	
O=C(N[C@@H](CCCCNS(=O)(=O)c1cccc2cccnc12)C(=O)O)OCC1c2ccccc2-c2ccccc21 [Compound 28, Nε-(8-Quinolinesulfonyl)-Nα-(9-fluorenylmethoxycarbonyl)-L-lysine]	15000	
O=C(NCCCC[C@H](NS(=O)(=O)c1cccc2ccccc12)C(=O)O)OCC1c2ccccc2-c2ccccc21 [Compound 102, Nα-(1-Naphthalenesulfonyl)-Nε-(9-fluorenylmethoxycarbonyl)-L-lysine]	2320	
CC(C)CN(C(CCCCNC(=O)OCc1ccccc1)C(=O)O)S(=O)(=O)c1ccc(Cl)cc1 (centres unmarked) [Compound 4]	> 100	
O=C(CC1c2ccccc2-c2ccccc21)N[C@@H](CCCCNS(=O)(=O)c1ccc(Br)cc1)C(=O)O [Compound 30, Nα-(9-Fluorenemethylcarbonyl)-Nε-(4-bromobenzenesulfonyl)-L-lysine]	71000	
Nc1ccc(S(=O)(=O)N[C@@H](CCCCNC(=O)OCC2c3ccccc3-c3ccccc32)C(=O)O)cc1 [Compound 106, Nα-(4-Aminobenzenesulfonyl)-Nε-(9-fluorenylmethoxycarbonyl)-L-lysine]	4490	
Cc1ccc(S(=O)(=O)N(CC(C)C)C(CCCCNC(=O)OCC2c3ccccc3-c3ccccc32)C(=O)NO)cc1 [Compound 141, (2R,2S)-N-Isobutyl-N-(4-methylbenzenesulfonylamino)-6-(9-fluorenylmethoxycarboxylamino)-1-hydroxylhexamide]	245	
CC(C)c1cc(C(C)C)c(S(=O)(=O)NCCCC[C@H](NC(=O)OCC2c3ccccc3-c3ccccc32)C(=O)O)c(C(C)C)c1 [Compound 25, Nε-(2,4,6-Triisopropylbenzenesulfonyl)-Nα-(9-fluorenylmethoxycarbonyl)-L-lysine]	> 3100	
Cc1cc(C)c(S(=O)(=O)N(CC(C)C)[C@@H](CCCCNC(=O)OCC2c3ccccc3-c3ccccc32)C(=O)O)c(C)c1 [Compound 42, Nα-Isobutyl-Nα-(2,4,6-trimethylbenzenesulfonyl)-Nε-(9-fluorenylmethoxycarbonyl)-L-lysine]	> 100	
Cc1ccc(S(=O)(=O)N(CC2CC2)[C@@H](CCCCNC(=O)OCC2c3ccccc3-c3ccccc32)C(=O)O)cc1 [Compound 43, Nα-Cyclopropylmethyl-Nα-(4-methylbenzenesulfonyl)-Nε-(9-fluorenylmethoxycarbonyl)-L-lysine]		Ki (Ki (nM)): 3.9 nM
COc1cc(C=CC(=O)NCCCC[C@@H](C(=O)O)N(CC(C)C)S(=O)(=O)c2ccc([N+](=O)[O-])cc2)cc(OC)c1 [Compound 189, Nα-Isobutyl-Nα-(4-nitrobenzenesulfonyl)-Nε-(3,5-dimethoxycinnamoyl)-L-lysine]	108	
COc1ccc(OC)c(CCC(=O)NCCCC[C@@H](C(=O)O)N(CC(C)C)S(=O)(=O)c2ccc(N)cc2)c1 [Compound 197, Nα-Isobutyl-Nα-(4-aminobenzenesulfonyl)-Nε-(2,5-dimethoxydihydrocinnamoyl)-L-lysine]		Ki [2]: 20.7 nM
O=C(N[C@@H](CCCCNS(=O)(=O)c1ccc(Br)cc1)C(=O)O)C(c1ccccc1)c1ccccc1 [Compound 36, Nα-(Diphenylacetyl)-Nε-(4-bromobenzenesulfonyl)-L-lysine]	24000	
CC(C)CN([C@@H](CCCCNS(=O)(=O)Cc1ccccc1)C(=O)O)S(=O)(=O)c1ccc([N+](=O)[O-])cc1 [Compound 115, Nα-Isobutyl-Nα-(4-nitrobenzenesulfonyl)-Nε-benzylsulfonyl-L-lysine]	> 300	

Reference: patent US6455587B1 (priority 2000, dated 2002)
